In PMC5218480 (PLoS ONE, 2017):

System: MV-4-11 cells
Assay: Gene expression microarray analysis (Affymetrix PrimeView) and GSEA
Assay type: cell-based, human
Parameters: RFU PODN (11730768_x_at) / Fold change /veh PODN (11730768_x_at) / RFU LINC00158 (11744669_a_at) / Fold change /veh LINC00158 (11744669_a_at) / RFU DUSP10 (11751237_a_at) / Fold change /veh DUSP10 (11751237_a_at) / RFU ID3 (11757404_x_at) / Fold change /veh ID3 (11757404_x_at) / RFU PLEKHG5 (11737974_s_at) / Fold change /veh PLEKHG5 (11737974_s_at) / RFU LRRC4B (11730491_at) / Fold change /veh LRRC4B (11730491_at) / RFU GIMAP4 (11747438_a_at) / Fold change /veh GIMAP4 (11747438_a_at) / RFU KRT8 (11758183_x_at) / Fold change /veh KRT8 (11758183_x_at) / RFU CNN1 (11734310_a_at) / Fold change /veh CNN1 (11734310_a_at) / RFU VPS37D (11726825_at) / Fold change /veh VPS37D (11726825_at) / RFU C10orf10 (11716522_x_at) / Fold change /veh C10orf10 (11716522_x_at) / RFU KIR2DL2 /// KIR2DL4 /// KIR2DL5A /// KIR2DL5B /// KIR2DS1 /// KIR2DS2 /// KIR2DS3 /// KIR2DS4 /// KIR3DL3 /// KIR3DL3 /// KIR3DS1 (11738374_at) / Fold change /veh KIR2DL2 /// KIR2DL4 /// KIR2DL5A /// KIR2DL5B /// KIR2DS1 /// KIR2DS2 /// KIR2DS3 /// KIR2DS4 /// KIR3DL3 /// KIR3DL3 /// KIR3DS1 (11738374_at) / RFU C1QL1 (11718748_at) / Fold change /veh C1QL1 (11718748_at) / RFU TMPRSS4 (11747572_a_at) / Fold change /veh TMPRSS4 (11747572_a_at) / RFU HAMP (11756126_x_at) / Fold change /veh HAMP (11756126_x_at) / RFU RNFT2 (11725882_a_at) / Fold change /veh RNFT2 (11725882_a_at) / RFU NR4A2 (11747474_a_at) / Fold change /veh NR4A2 (11747474_a_at) / RFU ABCC12 (11746883_a_at) / Fold change /veh ABCC12 (11746883_a_at) / RFU TMEM136 (11760407_x_at) / Fold change /veh TMEM136 (11760407_x_at) / RFU CLDN22 /// WWC2 (11732394_at) / Fold change /veh CLDN22 /// WWC2 (11732394_at) / RFU HLA-DPB1 (11760878_x_at) / Fold change /veh HLA-DPB1 (11760878_x_at) / RFU SPINT1 (11716480_a_at) / Fold change /veh SPINT1 (11716480_a_at) / RFU GAP43 (11754022_s_at) / Fold change /veh GAP43 (11754022_s_at) / RFU A4GNT (11735810_at) / Fold change /veh A4GNT (11735810_at) / RFU PRB3 (11715151_x_at) / Fold change /veh PRB3 (11715151_x_at) / RFU TUBB4B (11761932_at) / Fold change /veh TUBB4B (11761932_at) / RFU CAPN14 (11732068_a_at) / Fold change /veh CAPN14 (11732068_a_at) / RFU TMCC2 (11721928_a_at) / Fold change /veh TMCC2 (11721928_a_at) / RFU IRGQ (11745062_a_at) / Fold change /veh IRGQ (11745062_a_at) / RFU FAM174B (11720279_a_at) / Fold change /veh FAM174B (11720279_a_at) / RFU TMPRSS4 (11748680_a_at) / Fold change /veh TMPRSS4 (11748680_a_at) / RFU FAM212B (11763350_a_at) / Fold change /veh FAM212B (11763350_a_at) / RFU PLEKHG5 (11743358_a_at) / Fold change /veh PLEKHG5 (11743358_a_at) / RFU ZSCAN30 (11745921_a_at) / Fold change /veh ZSCAN30 (11745921_a_at) / RFU CMKLR1 (11741424_a_at) / Fold change /veh CMKLR1 (11741424_a_at) / RFU LOC101060620 /// MAPK8IP1 (11723275_at) / Fold change /veh LOC101060620 /// MAPK8IP1 (11723275_at) / RFU SPTSSB (11747773_x_at) / Fold change /veh SPTSSB (11747773_x_at) / RFU PRSS12 (11739890_at) / Fold change /veh PRSS12 (11739890_at) / RFU BIN1 (11741810_x_at) / Fold change /veh BIN1 (11741810_x_at) / RFU WNT11 (11732464_a_at) / Fold change /veh WNT11 (11732464_a_at) / RFU C10orf10 (11716521_a_at) / Fold change /veh C10orf10 (11716521_a_at) / RFU C5orf56 (11738089_at) / Fold change /veh C5orf56 (11738089_at) / RFU CYB561 (11721691_x_at) / Fold change /veh CYB561 (11721691_x_at) / RFU ANKRD19P (11752326_a_at) / Fold change /veh ANKRD19P (11752326_a_at) / RFU OR2T12 /// OR2T33 /// OR2T8 (11738714_s_at) / Fold change /veh OR2T12 /// OR2T33 /// OR2T8 (11738714_s_at) / RFU VCAN (11748164_a_at) / Fold change /veh VCAN (11748164_a_at) / RFU JSRP1 (11732532_at) / Fold change /veh JSRP1 (11732532_at) / RFU KRTAP10-11 (11738290_x_at) / Fold change /veh KRTAP10-11 (11738290_x_at) / RFU MYO3A (11730013_a_at) / Fold change /veh MYO3A (11730013_a_at) / RFU EBF3 (11725865_a_at) / Fold change /veh EBF3 (11725865_a_at) / RFU CAMK2N1 (11719241_x_at) / Fold change /veh CAMK2N1 (11719241_x_at) / RFU C5orf56 (11738088_a_at) / Fold change /veh C5orf56 (11738088_a_at) / RFU OLFML3 (11715873_a_at) / Fold change /veh OLFML3 (11715873_a_at) / RFU LOC100653217 /// NTM (11731650_a_at) / Fold change /veh LOC100653217 /// NTM (11731650_a_at) / RFU MAPK11 (11762145_a_at) / Fold change /veh MAPK11 (11762145_a_at) / RFU FIZ1 (11724087_x_at) / Fold change /veh FIZ1 (11724087_x_at) / RFU OASL (11726364_x_at) / Fold change /veh OASL (11726364_x_at) / RFU SOX15 (11748057_x_at) / Fold change /veh SOX15 (11748057_x_at) / RFU CD79A (11719716_a_at) / Fold change /veh CD79A (11719716_a_at) / RFU HIST1H1D (11736915_at) / Fold change /veh HIST1H1D (11736915_at) / RFU CASKIN2 (11723855_a_at) / Fold change /veh CASKIN2 (11723855_a_at) / RFU LOC730098 (11760151_x_at) / Fold change /veh LOC730098 (11760151_x_at) / RFU OR4N2 (11742367_at) / Fold change /veh OR4N2 (11742367_at) / RFU PRRT2 (11749266_a_at) / Fold change /veh PRRT2 (11749266_a_at) / RFU SNX32 (11753110_a_at) / Fold change /veh SNX32 (11753110_a_at) / RFU CDHR5 (11726645_a_at) / Fold change /veh CDHR5 (11726645_a_at) / RFU RCAN1 (11760418_a_at) / Fold change /veh RCAN1 (11760418_a_at) / RFU FAM167A (11723789_a_at) / Fold change /veh FAM167A (11723789_a_at) / RFU FAM26E (11764081_at) / Fold change /veh FAM26E (11764081_at) / RFU ISYNA1 (11749810_s_at) / Fold change /veh ISYNA1 (11749810_s_at) / RFU ACY1 (11761880_at) / Fold change /veh ACY1 (11761880_at) / RFU 11764098_at / Fold change /veh 11764098_at / RFU SAMD14 (11745864_x_at) / Fold change /veh SAMD14 (11745864_x_at) / RFU NPB (11741838_a_at) / Fold change /veh NPB (11741838_a_at) / RFU TMPRSS6 (11731388_a_at) / Fold change /veh TMPRSS6 (11731388_a_at) / RFU KRTAP10-2 (11738614_at) / Fold change /veh KRTAP10-2 (11738614_at) / RFU ARHGAP8 /// PRR5-ARHGAP8 (11727945_x_at) / Fold change /veh ARHGAP8 /// PRR5-ARHGAP8 (11727945_x_at) / RFU KRTAP5-7 /// NADSYN1 (11734609_at) / Fold change /veh KRTAP5-7 /// NADSYN1 (11734609_at) / RFU RASL12 (11751679_a_at) / Fold change /veh RASL12 (11751679_a_at) / RFU CDKN2B (11736163_a_at) / Fold change /veh CDKN2B (11736163_a_at) / RFU PRF1 (11729649_at) / Fold change /veh PRF1 (11729649_at) / RFU, ZNF638 /// ZNF638-IT1 / Fold change vs veh, ZNF638 /// ZNF638-IT1 / RFU, PANK3 / Fold change vs veh, PANK3 / RFU, SH3YL1 / Fold change vs veh, SH3YL1 / RFU, ZEB2 / Fold change vs veh, ZEB2 / RFU, NRIP1 / Fold change vs veh, NRIP1 / RFU, PTTG1IP / Fold change vs veh, PTTG1IP / RFU, CAPN2 / Fold change vs veh, CAPN2 / RFU, MED14 / Fold change vs veh, MED14 / RFU, SNORA58 / Fold change vs veh, SNORA58 / RFU, C1orf63 / Fold change vs veh, C1orf63 / RFU, LRRFIP1 / Fold change vs veh, LRRFIP1 / RFU, NDUFAF7 / Fold change vs veh, NDUFAF7 / RFU, SLC12A2 / Fold change vs veh, SLC12A2 / RFU, IBTK / Fold change vs veh, IBTK / RFU, ESF1 / Fold change vs veh, ESF1 / Fold change vs veh, TMEM50B / RFU, TAOK1 / Fold change vs veh, TAOK1 / RFU, ACBD3 / Fold change vs veh, ACBD3 / RFU, TMA16 / Fold change vs veh, TMA16 / RFU, RWDD3 / Fold change vs veh, RWDD3 / RFU, BCAT1 / Fold change vs veh, BCAT1 / RFU, EDEM3 / Fold change vs veh, EDEM3 / RFU, TMEM33 / Fold change vs veh, TMEM33 / RFU, WDR75 / Fold change vs veh, WDR75 / RFU, AHCTF1 / Fold change vs veh, AHCTF1 / RFU, TFRC / Fold change vs veh, TFRC / RFU, ZDHHC17 / Fold change vs veh, ZDHHC17 / RFU, NOM1 / Fold change vs veh, NOM1 / RFU, ARL8B / Fold change vs veh, ARL8B / RFU, ZBTB11 / Fold change vs veh, ZBTB11 / RFU, TAMM41 / Fold change vs veh, TAMM41 / RFU, KIAA1704 /// LOC100996395 / Fold change vs veh, KIAA1704 /// LOC100996395 / RFU, ING1 / Fold change vs veh, ING1 / RFU, TRMT61B / Fold change vs veh, TRMT61B / RFU, FUBP3 / Fold change vs veh, FUBP3 / RFU, TP53 / Fold change vs veh, TP53 / RFU, TNKS2 / Fold change vs veh, TNKS2 / RFU, ZFP14 / Fold change vs veh, ZFP14 / RFU, ACTR2 / Fold change vs veh, ACTR2 / RFU, PPP3R1 / Fold change vs veh, PPP3R1 / RFU, PIK3R1 / Fold change vs veh, PIK3R1 / RFU, HNRNPA1 / Fold change vs veh, HNRNPA1 / RFU, RNF170 / Fold change vs veh, RNF170 / RFU, ZNF28 / Fold change vs veh, ZNF28 / RFU, RNGTT / Fold change vs veh, RNGTT / RFU, OGT / Fold change vs veh, OGT / RFU, BRD1 / Fold change vs veh, BRD1 / RFU, MARS / Fold change vs veh, MARS / RFU, ZNF655 / Fold change vs veh, ZNF655 / RFU, FAHD1 / Fold change vs veh, FAHD1 / RFU, BDP1 / Fold change vs veh, BDP1 / RFU, LRRCC1 / Fold change vs veh, LRRCC1 / RFU, ARID1A / Fold change vs veh, ARID1A / RFU, ZNF146 / Fold change vs veh, ZNF146 / RFU, ZNF330 / Fold change vs veh, ZNF330 / RFU, GPN3 / Fold change vs veh, GPN3 / RFU, C9orf123 / Fold change vs veh, C9orf123 / RFU, N4BP2L2 / Fold change vs veh, N4BP2L2 / RFU, ARFIP1 / Fold change vs veh, ARFIP1 / RFU, FAM179B / Fold change vs veh, FAM179B / RFU, BCL10 / Fold change vs veh, BCL10 / RFU, UHRF1BP1L / Fold change vs veh, UHRF1BP1L / RFU, BET1 / Fold change vs veh, BET1 / RFU, CNOT2 / Fold change vs veh, CNOT2 / RFU, ZNF268 / Fold change vs veh, ZNF268 / Fold change vs veh, ZNF507 / RFU, DGCR2 / Fold change vs veh, DGCR2 / RFU, WDSUB1 / Fold change vs veh, WDSUB1 / Fold change vs veh, HSP90B1 /// MIR3652 / RFU, ADSS / Fold change vs veh, ADSS / RFU, GK / Fold change vs veh, GK / RFU, ZNF148 / Fold change vs veh, ZNF148 / RFU, TAF9 / Fold change vs veh, TAF9 / RFU, SLC1A5 / Fold change vs veh, SLC1A5 / RFU, SLMO2 / Fold change vs veh, SLMO2 / RFU, ABCC4 / Fold change vs veh, ABCC4 / RFU, LOC101060439 /// RAP1B / Fold change vs veh, LOC101060439 /// RAP1B / RFU, RFX7 / Fold change vs veh, RFX7 / RFU, GTPBP10 / Fold change vs veh, GTPBP10 / RFU, CNEP1R1 / Fold change vs veh, CNEP1R1 / RFU, BIVM-ERCC5 /// ERCC5 / Fold change vs veh, BIVM-ERCC5 /// ERCC5 / RFU, ILF3 / Fold change vs veh, ILF3 / RFU 11762660_at / Fold change /veh 11762660_at / RFU VCAN (11757783_s_at) / Fold change /veh VCAN (11757783_s_at) / RFU DDX43 (11728927_at) / Fold change /veh DDX43 (11728927_at) / RFU KRT8 (11758188_x_at) / Fold change /veh KRT8 (11758188_x_at) / RFU NKD1 (11759106_at) / Fold change /veh NKD1 (11759106_at) / RFU SRD5A1 (11742802_a_at) / Fold change /veh SRD5A1 (11742802_a_at) / RFU TPSAB1 /// TPSB2 (11721975_s_at) / Fold change /veh TPSAB1 /// TPSB2 (11721975_s_at) / RFU GSTM3 (11746129_a_at) / Fold change /veh GSTM3 (11746129_a_at) / RFU IL23R (11737362_x_at) / Fold change /veh IL23R (11737362_x_at) / RFU TMEM51 (11727254_a_at) / Fold change /veh TMEM51 (11727254_a_at) / RFU PIWIL2 (11732686_x_at) / Fold change /veh PIWIL2 (11732686_x_at) / RFU ORM1 (11744905_x_at) / Fold change /veh ORM1 (11744905_x_at) / RFU CCDC152 (11743942_at) / Fold change /veh CCDC152 (11743942_at) / RFU ECM1 (11717891_a_at) / Fold change /veh ECM1 (11717891_a_at) / RFU IL23R (11748794_a_at) / Fold change /veh IL23R (11748794_a_at) / RFU TNFAIP8L3 (11732012_x_at) / Fold change /veh TNFAIP8L3 (11732012_x_at) / RFU MBOAT4 (11741988_at) / Fold change /veh MBOAT4 (11741988_at) / RFU 11764193_at / Fold change /veh 11764193_at / RFU TMEM53 (11763286_at) / Fold change /veh TMEM53 (11763286_at) / RFU MAGEB2 (11727129_at) / Fold change /veh MAGEB2 (11727129_at) / RFU TMEM200A (11744735_a_at) / Fold change /veh TMEM200A (11744735_a_at) / RFU CCDC152 (11751479_a_at) / Fold change /veh CCDC152 (11751479_a_at) / RFU FAM211A (11726209_a_at) / Fold change /veh FAM211A (11726209_a_at) / RFU RGS16 (11746705_a_at) / Fold change /veh RGS16 (11746705_a_at) / RFU VCAN (11755009_s_at) / Fold change /veh VCAN (11755009_s_at) / RFU RHOB (11743442_s_at) / Fold change /veh RHOB (11743442_s_at) / RFU RGS16 (11720943_a_at) / Fold change /veh RGS16 (11720943_a_at) / RFU RGS16 (11720944_at) / Fold change /veh RGS16 (11720944_at) / RFU, VPS4B / Fold change vs veh, VPS4B / RFU, CREB1 / Fold change vs veh, CREB1 / RFU, DNAJC13 / Fold change vs veh, DNAJC13 / RFU, GNAQ / Fold change vs veh, GNAQ / RFU, CDK5R1 / Fold change vs veh, CDK5R1 / RFU, ZRANB3 / Fold change vs veh, ZRANB3 / RFU, CUL4A / Fold change vs veh, CUL4A / RFU, CCNY / Fold change vs veh, CCNY / RFU, UFL1 / Fold change vs veh, UFL1 / RFU, COG3 / Fold change vs veh, COG3 / RFU, DIAPH2 / Fold change vs veh, DIAPH2 / RFU, SKA2 / Fold change vs veh, SKA2 / RFU, AFF3 / Fold change vs veh, AFF3 / RFU, LMF1 / Fold change vs veh, LMF1 / RFU, IPO11 / Fold change vs veh, IPO11 / RFU, DFFB / Fold change vs veh, DFFB / RFU, FOXP1 / Fold change vs veh, FOXP1 / RFU, CARD8 / Fold change vs veh, CARD8 / RFU, STRN3 / Fold change vs veh, STRN3 / RFU, ADK / Fold change vs veh, ADK / RFU, RASSF2 / Fold change vs veh, RASSF2 / RFU, WIPF1 / Fold change vs veh, WIPF1 / RFU, LARP1B / Fold change vs veh, LARP1B / RFU, RASA1 / Fold change vs veh, RASA1 / RFU, RB1 / Fold change vs veh, RB1 / RFU, PPFIA1 / Fold change vs veh, PPFIA1 / RFU, MAT2A / Fold change vs veh, MAT2A / RFU, CCT5 / Fold change vs veh, CCT5 / RFU, WDR92 / Fold change vs veh, WDR92 / RFU, CUX1 / Fold change vs veh, CUX1 / RFU, TTC7A / Fold change vs veh, TTC7A / RFU, TMEM135 / Fold change vs veh, TMEM135 / RFU, DEPTOR / Fold change vs veh, DEPTOR / RFU, CPM / Fold change vs veh, CPM / RFU, DNAJB6 / Fold change vs veh, DNAJB6 / RFU, CACNA2D3 / Fold change vs veh, CACNA2D3 / RFU, DTX4 / Fold change vs veh, DTX4 / RFU, TFCP2 / Fold change vs veh, TFCP2 / RFU, GMCL1 /// GMCL1P1 / Fold change vs veh, GMCL1 /// GMCL1P1 / RFU, AEBP2 / Fold change vs veh, AEBP2 / RFU, SNHG1 /// SNORD22 /// SNORD25 /// SNORD26 /// SNORD27 /// SNORD28 /// SNORD29 /// SNORD31 / Fold change vs veh, SNHG1 /// SNORD22 /// SNORD25 /// SNORD26 /// SNORD27 /// SNORD28 /// SNORD29 /// SNORD31 / Fold change (Aza/veh), C12orf56 (ProbeSet 11735607_a_at) / Fold change (ACY-1035/veh), C12orf56 (ProbeSet 11735607_a_at) / Fold change (Aza/veh), FGFR1OP (ProbeSet 11751329_s_at) / Fold change (ACY-1035/veh), FGFR1OP (ProbeSet 11751329_s_at) / Fold change (Aza/veh), VPS36 (ProbeSet 11739960_a_at) / Fold change (ACY-1035/veh), VPS36 (ProbeSet 11739960_a_at) / RFU SYPL1 (11715823_x_at) / Fold change /veh SYPL1 (11715823_x_at) / RFU IGFBP7 (11715501_s_at) / Fold change /veh IGFBP7 (11715501_s_at) / RFU REEP3 (11722064_at) / Fold change /veh REEP3 (11722064_at) / RFU IGLL1 (11728026_x_at) / Fold change /veh IGLL1 (11728026_x_at): dose or concentration left out as unconfirmed
Details: ProbeSet 11730252_s_at; LIST B

## Nc1ncn([C@@H]2O[C@H](CO)[C@@H](O)[C@H]2O)c(=O)n1 [azacitidine]
  Fold change vs veh, AHCTF1: 0.94
